Where a name gives a salt, the structure may show the parent alone. Starred links: 1 amine or outer side, 2 acyl side, 3 side chain; linkers in the order of their positions; H or OH if unused. Positions of bridges follow the written chain, without caps; N, C: chain ends. Non-standard residues stand in square brackets, D forms with d. Residues, ends and D or L forms follow the SMILES beside them. Chains are numbered I, II in the order given. Actinocin(9to1) = Cc1c2oc3c(C)ccc(C(=O)[*:1])c3nc-2c(C(=O)[*:2])c(N)c1=O; NMeV = CN[C@H](C(=O)O)C(C)C; Sar = CNCC(=O)O
Experiments:
[1] = test system: IL-4; test: In vivo ovalbumin (OVA) mouse model, BALF IL-4; details: i.n.
Procedure: (§1) This model is designed to determine the ability of a test article to modulate an antigen-induced pulmonary inflammatory cell accumulation in sensitized Balb/c mice from Charles River Laboratories. The mice are given a two week time period from arrival date prior to sensitizations.
(§2) On days 0, 7, 14, each animal is injected intraperitoneal (i.p.) with a 0.2 ml Ovalbumin Hydragel solution. Each animal receives 10 μg of Ovalbumin in 0.2 mL of Hydragel, aluminum hydroxide adsorptive gel containing 2% aluminum oxide. On Day 21, the animals are dosed with test compounds 30-60 minutes prior to 5% Ovalbumin aerosolized challenge. On day 22, BALF samples are collected from one group of animals and used for cytokine analysis. On day 24, BALF is obtained from a second group of animals and used for differential cell counts.
(§3) Test System: Female Babl/cJ mice (Jackson Laboratories), approximately 6-9 weeks old, each weighing approximately 20 to 25 grams, are divided into ten animals per group.
(§4) Sensitization Regimen: Mice are sensitized by an intraperitoneal injection of 10 μg ovalbumin (OVA) mixed in 4 mg aluminum hydroxide Al(OH)3 gel suspension in 0.2 ml sterile saline on Days 0, 7 and 14. This suspension is prepared one hour before intraperitoneal injection into each mouse. The animals are ready for OVA challenge on Day 21.
(§5) Antigen Challenge: Animals are exposed to aerosolized OVA on day 21 (5% w/v in sterile saline) for 20 minutes. The aerosol is generated by a PARI-Master nebulizer, the outlet of which is connected to a small Plexiglas® chamber containing the animals. Bronchoalveolar lavage is performed on Day 22.
(§6) Method of Study Performance: On day 24, 72 hours following aerosol OVA exposure, a separate group of animals are anesthetized with urethane (0.15-0.2 gm/kg) and the trachea is exposed and cannulated. Lungs are lavaged with 2×0.5 ml Hank's balanced salt solution without Ca^2+ and Mg^2+ (HBSS; Gibco, Grand Island, N.Y.) containing 0.1% EDTA. Lavage fluid is recovered after 30 sec by gentle aspiration and pooled for each animal. Samples are centrifuged at 2000 rpm for 15 minutes at 5° C. After centrifugation, individual supernatants are stored frozen at −80° C. The resulting pellet is resuspended in 0.5 ml of HBSS containing 0.1% EDTA. Total cells and eosinophils are determined using a Technicon Hl and cytoslides, respectively.
Administration of the Test/Control Article: The test article and vehicle dosing preparations are administered once to each anesthetized mouse intranasally using a 200 μl pipette at 30-60 minutes prior to OVA challenge. Each animal receives 50 μl (25 μl/nostril) at each time point. Method of Euthanasia: Urethane overdose at in-life completion.
Statistical Analysis: Total cell and eosinophil number from various treatment groups is compared using an ANOVA followed by a multiple comparison test.
Compounds administered 30 minutes before aerosol ovalbumin challenge in ova sensitized mice. BALF harvested 24 hours after aerosol challenge. N=6/group.
FIG. 1 summarizes results from one representative experiment (out of three) in which in addition to BALF cytokines, lung eosinophilia is also determined. Mice (12 animals per group) are sensitized with 0.2 ml of an AlOH3 hydrogel suspension (2% AlOH3) containing 50 μg/ml ovalbumin on days 0, 7 and 14. […] After the OVA challenge for 24 hours, the mice underwent bronchoalveolar lavage and IL-4 and IL-13 levels in the BALF are determined by ELISA. […]

[2] = test system: eosinophils; test: In vivo ovalbumin (OVA) mouse model, BALF eosinophils; details: i.n., 30 mg/kg
Procedure: as §1, §2, §3, §4, §5
as §6, with “respectively. […]” for “respectively.”
FIG. 1 summarizes results from one representative experiment (out of three) in which in addition to BALF cytokines, lung eosinophilia is also determined. […] After the OVA challenge for 24 hours, the mice underwent bronchoalveolar lavage and IL-4 and IL-13 levels in the BALF are determined by ELISA. […]

[3] = test system: Swiss 3T3 fibroblasts; test: In vitro cytotoxicity assay on contact inhibited 3T3 fibroblasts (MTS); assay type: cell-based; details: non-dividing 3T3 cells
Procedure: Other toxicity assays may be used.
Any compound killing 3T3 fibroblast cells was omitted from further studies.
Contact inhibited Swiss 3T3 fibroblasts are purchased from ATCC.
All compound dilutions are assayed in triplicate. […] Cells are returned to the incubator for 2 days.
Media is added to blank wells for background calculations.
Note that starting concentration of CsA was 1 μM.

| Structure (SMILES) | IL-4% ctl At 24 hours ([1]; 30 mg/kg) [% ctl] | Eos % ctl At 72 hours [2] [% ctl] | melting point | also measured |
| --- | --- | --- | --- | --- |
| O=C(O)c1[nH]c2ccccc2c1Nc1ccncc1 [Example 28-EF, 3-(4-Pyridinylamino)-1H-indole-2-carboxylic acid] | 27 | 42 | – | – |
| Cc1c2oc3c(C)ccc(C(=O)N[C@@H]4C(=O)N[C@H](C(C)C)C(=O)N5CCC[C@H]5C(=O)N(C)CC(=O)N(C)[C@@H](C(C)C)C(=O)O[C@@H]4C)c3nc-2c(C(=O)N[C@@H]2C(=O)N[C@H](C(C)C)C(=O)N3CCC[C@H]3C(=O)N(C)CC(=O)N(C)[C@@H](C(C)C)C(=O)O[C@@H]2C)c(N)c1=O [Actinomycin D, reference compound] (I: T[dV]P[Sar][NMeV] / II: T[dV]P[Sar][NMeV]; ester I:1-I:C, II:1-II:C; linker I:N-II:N via Actinocin(9to1)) | – | – | – | toxic effects on quiescent 3T3 cells (in words) [3]: the only compound which effected the viability |
| O=C(O)c1[nH]c2ccccc2c1Nc1ccncc1 [Example 28-ZD, 3-(4-Pyridinylamino)-1H-indole-2-carboxylic acid] | 49.6 | 37.4 | – | – |
| CCOC(=O)c1[nH]c2ccccc2c1Nc1ccncc1 [Example 11, 3-(4-pyridinylamino)-1H-indole-2-carboxylic acid, ethyl ester] | – | – | 248 to 250 °C | – |
| CCOC(=O)c1c(Nc2ccncc2)c2ccccc2n1C [Example 24A (maleate salt), 1-Methyl-3-(4-pyridinylamino)-1H-indole-2-carboxylic ethyl ester] | 3 | 8 | – | – |
| O=C(O)c1[nH]c2ccccc2c1Nc1ccncc1 [28 (maleate salt), 3-(4-Pyridinylamino)-1H-indole-2-carboxylic acid] | – | – | – | IL-4% ctl At 24 hours ([1]; 12 mg/kg): 50 % ctl |
| CCOC(=O)c1[nH]c2cc(Cl)cc(Cl)c2c1NS(=O)(=O)c1ccccc1 [Example 90, 3-((Phenylsulfonyl)amino)-4,6-dichloro-1H-indole-2-carboxylic acid ethyl ester] | 37 | 71 | – | – |
| CCOC(=O)c1[nH]c2cc(-c3ccccc3)ccc2c1Nc1ccncc1 [Example 18, 6-phenyl-3-(4-pyridinylamino)-1H-indole-2-carboxylic acid, ethyl ester] | – | – | 241 to 243 °C | – |
| CCOC(=O)c1[nH]c2cc(Cl)ccc2c1Nc1ccncc1 [Example 13, 6-chloro-3-(4-pyridinylamino)-1H-indole-2-carboxylic acid, ethyl ester] | – | – | 258 to 261 °C (dec.) | – |

Reference: patent publication US20080132481A1, “INTERLEUKIN-4 GENE EXPRESSION INHIBITORS” (AVENTIS PHARMACEUTICALS INC., priority 2002, published 2008)
